In patent publication US5567692A, “9-[(substituted glycyl) amido)]-6-demethyl-6-deoxytetracyclines” (priority 1995, dated 1996):
Counter-ions that a name gives are not always drawn. Like-named read-outs stand apart in the source and are kept apart here.

Experiments:
E. coli UBMS 88-1 Tet B = assay: microbe, parasite or virus in culture; assay type: cell-based; conditions: Escherichia coli, UBMS881TETB, 18 h
E. coli J3272 Tet sens = assay: MIC, agar dilution; assay type: cell-based; conditions: Escherichia coli, J3272TETSENS, 18 h
E. coli PRP1 Tet A = assay: microbe, parasite or virus in culture; assay type: cell-based
[1] = system: E. coli MC 4100 TNIOC Tet B; assay: microbe, parasite or virus in culture; assay type: cell-based; conditions: Escherichia coli, 18 h
E. coli J3272 Tet C = assay: microbe, parasite or virus in culture; assay type: cell-based
E. coli UBMS 89-1 Tet M = assay: microbe, parasite or virus in culture; assay type: cell-based; conditions: Escherichia coli, UBMS891TETM, 18 h
[2] = system: E. coli UBMS 89-2 Tet sens.; assay: MIC, agar dilution; assay type: cell-based; conditions: Escherichia coli, 18 h
E. coli J2175 = assay: MIC, agar dilution; assay type: cell-based; conditions: Escherichia coli, 18 h, read-out: MIC
E. coli UBMS 90-4 Tet M = assay: microbe, parasite or virus in culture; assay type: cell-based; conditions: Escherichia coli, UBMS904TETM, 18 h
E. coli UBMS 90-5 = assay: microbe, parasite or virus in culture; assay type: cell-based; conditions: E. coli UBMS 90-5
E. coli #311 (MP) = assay: MIC, agar dilution; assay type: cell-based
E. coli ATCC 25922 = assay: MIC, agar dilution; assay type: cell-based; conditions: Escherichia coli, ATCC25922, 18 h
S. marcescens FPOR 8733 = assay: MIC, agar dilution; assay type: cell-based; conditions: Serratia marcescens, FPOR8733, 18 h
[3] = system: X. maltophilia NEMC 87210; assay: MIC, agar dilution; assay type: cell-based; conditions: Stenotrophomonas maltophilia, NEMC87210, 18 h, X. maltophilia NEMC 87210; read-out: MIC
[4] = system: Ps. aeruginosa ATCC 27853; assay: MIC, agar dilution; assay type: cell-based; conditions: Ps. aeruginosa ATCC 27853
S. aureus NEMC 8769 = assay: MIC, agar dilution; assay type: cell-based; conditions: Staphylococcus aureus, NEMC8769, 18 h
[5] = system: S. aureus UBMS 88-7 Tet K; assay: microbe, parasite or virus in culture; assay type: cell-based; conditions: Staphylococcus aureus, UBMS887TETK, 18 h
[6] = system: S. aureus UBMS 90-1 Tet M; assay: microbe, parasite or virus in culture; assay type: cell-based; conditions: Staphylococcus aureus, UBMS901TETM, 18 h
S. aureus UBMS 90-3 = assay: MIC, agar dilution; assay type: cell-based; conditions: Staphylococcus aureus, UBMS903, 18 h, S. aureus UBMS 90-3
S. aureus IVES 2943 = assay: MIC, agar dilution; assay type: cell-based; conditions: Staphylococcus aureus, IVES2943, 18 h, S. aureus IVES 2943; read-out: MIC
S. aureus ROSE (MP) = assay: MIC, agar dilution; assay type: cell-based; conditions: Staphylococcus aureus, 18 h
S. aureus IVES 1983 = assay: MIC, agar dilution; assay type: cell-based; conditions: Staphylococcus aureus, IVES1983, 18 h
S. aureus ATCC 29213 = assay: MIC, agar dilution; assay type: cell-based; conditions: Staphylococcus aureus, ATCC29213, 18 h, S. aureus ATCC 29213
[7] = system: S. hemolyticus AVHAH 88-3; assay: MIC, agar dilution; assay type: cell-based; conditions: Streptococcus pyogenes, AVHAH883, 18 h
[8] = system: Staphylococcus aureus strain Smith (tetracycline sensitive); assay: Acute lethal infection in mice, S. aureus Smith; assay type: in vivo; conditions: for ED50: Staphylococcus aureus, 168 h, mice, S. aureus Smith (Sens), 7 day survival, read-out: ED50
E. coli BAJ9003 IMP MUT = assay: microbe, parasite or virus in culture; assay type: cell-based; conditions: Escherichia coli, BAJ9003IMPMUT, 18 h
E. coli J3272 Tet D = assay: microbe, parasite or virus in culture; assay type: cell-based; conditions: Escherichia coli, J3272TETD, 18 h
S. aureus UBMS 88-4 = assay: MIC, agar dilution; assay type: cell-based; conditions: Staphylococcus aureus, UBMS884, 18 h; S. aureus UBMS 88-4; read-out: MIC
[9] = system: S. aureus UBMS 88-5 Tet M; assay: microbe, parasite or virus in culture; assay type: cell-based; conditions: Staphylococcus aureus, UBMS885TETM, 18 h
[10] = system: S. aureus UBMS 90-2 Tet M; assay: microbe, parasite or virus in culture; assay type: cell-based; conditions: Staphylococcus aureus, UBMS902TETM, 18 h
S. aureus SMITH (MP) = assay: MIC, agar dilution; assay type: cell-based; conditions: Staphylococcus aureus, 18 h
Enterococcus 12201 = assay: MIC, agar dilution; assay type: cell-based; conditions: Enterococcus, 12201, 18 h
E. faecalis ATCC 29212 = assay: MIC, agar dilution; assay type: cell-based; conditions: Enterococcus faecalis, ATCC29212, 18 h

## CN(C)CC(=O)Nc1ccc2c(c1O)C(=O)C1=C(O)[C@]3(O)C(=O)C(C(N)=O)=C(O)[C@@H](N(C)C)C3CC1C2 (stereo partly drawn) [AA, [4S-(4alpha,12aalpha)]-4-(Dimethylamino)-9-[[(dimethylamino)acetyl]amino]-1,4,4a,5,5a,6,11,12a-octahydro-3,10,12,12a-tetrahydroxy-1,11-dioxo-2-naphthacenecarboxamide disulfate]
E. coli UBMS 88-1 Tet B
  MIC: 0.25 µg/mL
E. coli J3272 Tet sens
  MIC: 0.25 µg/mL
E. coli PRP1 Tet A
  MIC: 2 µg/mL
[1]
  MIC: 0.25 µg/mL
E. coli J3272 Tet C
  MIC: 1 µg/mL
E. coli UBMS 89-1 Tet M
  MIC: 0.25 µg/mL
[2]
  MIC: 0.25 µg/mL
E. coli J2175
  MIC: 0.25 µg/mL
E. coli UBMS 90-4 Tet M
  MIC: 0.25 µg/mL
E. coli UBMS 90-5
  MIC: 0.25 µg/mL
E. coli #311 (MP); E. coli #311 (MP)
  MIC: 0.50 µg/mL
E. coli ATCC 25922
  MIC: 0.25 µg/mL
S. marcescens FPOR 8733; read-out: MIC
  MIC: 4 µg/mL
[3]
  MIC: 2 µg/mL
[4]
  MIC: 16 µg/mL
S. aureus NEMC 8769
  MIC: 0.03 µg/mL
[5]
  MIC: 1 µg/mL
[6]
  MIC: 0.25 µg/mL
S. aureus UBMS 90-3
  MIC: 0.06 µg/mL
S. aureus IVES 2943
  MIC: 1 µg/mL
S. aureus ROSE (MP)
  MIC: 4 µg/mL
S. aureus IVES 1983
  MIC: 2 µg/mL
S. aureus ATCC 29213
  MIC: < 0.015 µg/mL
[7]; S. hemolyticus AVHAH 88-3, read-out: MIC
  MIC: 0.5 µg/mL
[8]; iv, Intraveneous
  ED50: 0.5 to 1 mg/kg
[8]; po, Oral
  ED50: > 16 mg/kg
[8]; tested intravenously against the minocycline sensitive organism S. aureus Smith
  in vivo activity (in words): very good in vivo activity

## CC(Br)C(=O)Nc1ccc2c(c1O)C(=O)C1=C(O)[C@]3(O)C(=O)C(C(N)=O)=C(O)[C@@H](N(C)C)C3CC1C2 (stereo partly drawn) [S, [4S-(4alpha,12aalpha)]-9-[(2-Bromo-1-oxopropyl)amino]-4-(dimethylamino)-1,4,4a,5,5a,6,11,12a-octahydro-3,10,12,12a-tetrahydroxy-1,11-dioxo-2-naphthacenecarboxamide dihydrochloride]
E. coli UBMS 88-1 Tet B
  MIC: > 32 µg/mL
E. coli J3272 Tet sens
  MIC: 4 µg/mL
E. coli PRP1 Tet A; Escherichia coli, PRP1TETA, 18 h
  MIC: > 32 µg/mL
[1]
  MIC: > 32 µg/mL
E. coli J3272 Tet C; Escherichia coli, J3272TETC, 18 h
  MIC: > 32 µg/mL
E. coli UBMS 89-1 Tet M
  MIC: > 32 µg/mL
[2]
  MIC: 16 µg/mL
E. coli J2175
  MIC: 16 µg/mL
E. coli BAJ9003 IMP MUT
  MIC: 1 µg/mL
E. coli UBMS 90-4 Tet M
  MIC: > 32 µg/mL
E. coli UBMS 90-5; Escherichia coli, UBMS905, 18 h, read-out: MIC
  MIC: 8 µg/mL
E. coli #311 (MP); Escherichia coli, 18 h
  MIC: 8 µg/mL
E. coli ATCC 25922
  MIC: 8 µg/mL
E. coli J3272 Tet D
  MIC: > 32 µg/mL
S. marcescens FPOR 8733
  MIC: > 32 µg/mL
[3]
  MIC: 16 µg/mL
[4]; Pseudomonas aeruginosa, ATCC27853, 18 h, read-out: MIC
  MIC: > 32 µg/mL
S. aureus NEMC 8769; read-out: MIC
  MIC: 0.25 µg/mL
S. aureus UBMS 88-4
  MIC: 2 µg/mL
[9]
  MIC: 32 µg/mL
[5]
  MIC: 16 µg/mL
[6]
  MIC: 32 µg/mL
S. aureus UBMS 90-3; read-out: MIC
  MIC: 2 µg/mL
[10]
  MIC: 16 µg/mL
S. aureus IVES 2943
  MIC: 32 µg/mL
S. aureus ROSE (MP)
  MIC: > 32 µg/mL
S. aureus SMITH (MP)
  MIC: 1 µg/mL
S. aureus IVES 1983; S. aureus IVES 1983, read-out: MIC
  MIC: 32 µg/mL
S. aureus ATCC 29213; read-out: MIC
  MIC: 2 µg/mL
[7]
  MIC: 8 µg/mL
Enterococcus 12201
  MIC: 32 µg/mL
E. faecalis ATCC 29212
  MIC: 16 µg/mL
